Results reported in PMC7464159, “Triple Negative Breast Cancer and Breast Epithelial Cells Differentially Reprogram Glucose and Lipid Metabolism upon Treatment with Triterpenic Acids” (Biomolecules, 2020).

Tested on: MDA-MB-231 cells
Experiment: 1H NMR metabolomics of polar (aqueous) cell extracts
Assay type: cell-based, human
Protocol: MDA-MB-231 and MCF-10A cells were seeded in 10-cm-diameter Petri dishes at a density of 6 × 10^5 cells/mL (10 mL per dish) and cultured for 24 h at 37 °C. […] Vehicle solvent control cells received DMSO (0.10% v/v). Samples were collected immediately after 48 h incubation or, to assess cellular recovery, medium was replaced with fresh growth medium (without TAs), and cells were incubated for additional 24 h before collection (48 + 24 h samples). Four independent assays were performed.
After incubation, culture medium was collected and centrifuged (1000× g, 5 min) and the supernatant stored at −80 °C until analysis. Culture medium without cells was placed under the same conditions and collected. Cell extraction was performed as described by Carrola et al.. Briefly, cells were washed four times with PBS and extracted with a mixture of methanol:chloroform:water (1:1:0.7). The resulting polar and organic phases were collected and then dried under vacuum or under a stream of nitrogen gas, respectively. All samples were stored at −80 °C and, at the time of analysis, dried polar extracts were reconstituted in 600 µL of deuterated phosphate buffer (100 mM, pH 7.4) containing 0.1 mM TSP-d4, while organic extracts were reconstituted in deuterated chloroform containing 0.03% TMS. Regarding medium samples, 540 μL were mixed with 60 μL of D2O containing 0.25% TSP-d4. Prior to analysis, 550 μL of each sample were transferred to 5 mm NMR tubes.
^1H NMR spectra of all samples were acquired on a Bruker Avance III HD 500 NMR spectrometer (University of Aveiro, Portuguese NMR Network) operating at 500.13 MHz for ^1H observation equipped with a 5 mm TXI probe. Standard 1D spectra (Bruker pulse programs ‘noesypr1d’, with water suppression, for medium samples and aqueous extracts, and ‘zg’ for organic extracts) were recorded with a 7002.8 Hz spectral width, 32 k data points, a 2 s relaxation delay and 512 scans. Spectral processing comprised exponential multiplication with 0.3 Hz line broadening, zero filling to 64 k data points, manual phasing, baseline correction, and chemical shift calibration to the TSP or TMS signal at 0 ppm. 2D ^1H-^1H total correlation (TOCSY) spectra, ^1H-^13C heteronuclear single quantum correlation (HSQC) spectra and J-resolved spectra were also registered for selected samples to assist spectral assignment. Metabolites were identified with the support of 2D spectra and the spectral reference databases BBIOREFCODE-2-0-0 (Bruker Biospin, Rheinstetten, Germany) and HMDB [28]. Selected signals were then integrated using the AmixViewer software […] (version 3.9.14, Bruker BioSpin, Rheinstetten, Germany) and normalized by the total spectral area. The magnitude of each metabolite change was assessed through the percentage of variation (and its respective error) in exposed samples relatively to controls, and through the effect size (ES) adjusted for small sample numbers (and respective standard error). Metabolite variations with absolute ES greater than 0.8 were expressed in a heatmap, colored as a function of the percentage of variation, employing the R statistical software.

## C=C(C)[C@@H]1CC[C@]2(C(=O)O)CC[C@]3(C)[C@H](CC[C@@H]4[C@@]5(C)CC[C@H](O)C(C)(C)[C@@H]5CC[C@]43C)[C@@H]12 [BA, betulinic acid]
BA 5µM, 48h
  ATP %var: 0%
  Acetate %var: 0%
  Ala %var: -12.64%
  Asp %var: -30.52%
  Choline %var: 10.16%
  Citrate %var: -40.97%
  Cr %var: 22.45%
  Fumarate %var: -35.42%
  GPC %var: 13.50%
  GSH %var: -15.77%
  Gln %var: -28.49%
  Glu %var: -24.61%
  Gly %var: 0%
  Ile %var: 14.68%
  Lactate %var: 53.08%
  Leu %var: 15.91%
  PC %var: -24.96%
  PCr %var: -19.36%
  Phe %var: 6.80%
  Pro %var: 16.73%
  Tau %var: 6.09%
  Tyr %var: 8.11%
  Val %var: 18.46%
  myo-Ino %var: -8.23%
BA 5µM, 48h+24h
  ATP %var: -7.54%
  Acetate %var: 0%
  Ala %var: -7.44%
  Asp %var: 0%
  Choline %var: 0%
  Citrate %var: -12.45%
  Cr %var: 0%
  Fumarate %var: 0%
  GPC %var: 0%
  GSH %var: 0%
  Gln %var: 0%
  Glu %var: 0%
  Gly %var: -8.57%
  Ile %var: 0%
  Lactate %var: 0%
  Leu %var: 0%
  PC %var: 0%
  PCr %var: 0%
  Phe %var: 0%
  Pro %var: 0%
  Tau %var: 0%
  Tyr %var: 0%
  Val %var: 0%
  myo-Ino %var: -6.52%
BA 15µM, 48h
  ATP %var: 0%
  Acetate %var: 21.07%
  Ala %var: -10.34%
  Asp %var: -12.45%
  Choline %var: 12.46%
  Citrate %var: -51.74%
  Cr %var: 18.99%
  Fumarate %var: -37.50%
  GPC %var: 26.27%
  GSH %var: -25.87%
  Gln %var: -20.94%
  Glu %var: -37.41%
  Gly %var: -9.59%
  Ile %var: 30.97%
  Lactate %var: 55.73%
  Leu %var: 33.86%
  PC %var: -38.62%
  PCr %var: -22.44%
  Phe %var: 24.06%
  Pro %var: 21.93%
  Tau %var: 7.79%
  Tyr %var: 28.53%
  Val %var: 38.79%
  myo-Ino %var: -18.58%
  number of intracellular polar metabolites consistently altered: 23
BA 15µM, 48h+24h
  ATP %var: -15.36%
  Acetate %var: 22.70%
  Ala %var: -12.62%
  Asp %var: 0%
  Choline %var: 0%
  Citrate %var: -19.78%
  Cr %var: 0%
  Fumarate %var: 0%
  GPC %var: 0%
  GSH %var: 0%
  Gln %var: -5.26%
  Glu %var: -11.90%
  Gly %var: -31.75%
  Ile %var: 0%
  Lactate %var: 0%
  Leu %var: 0%
  PC %var: 0%
  PCr %var: -14.19%
  Phe %var: 0%
  Pro %var: 0%
  Tau %var: 0%
  Tyr %var: 0%
  Val %var: 0%
  myo-Ino %var: -17.84%
